Data reported in patent US5750553A, “Optionally substituted phenylimidazolidines, their preparation process and intermediates, their use as medicaments and the pharmaceutical compositions containing them” (Roussel Uclaf, priority 1994, dated 1998).

Assays:
androgen receptor = biological target: T1, androgen receptor (Rattus norvegicus, UniProt P15207); test: Study of the affinity of the products of the invention for the androgen receptor (displacement of tritiated testosterone, rat prostate cytosol); format: binding, Male Sprague Dawley EOPS rats; settings: Incubation: 24 hours, 0° C., RBA=100 (CH)/(CX), testosterone = 100
T1 construct: the prostates are removed, weighed and homogenized at 0° C; from tissue; host or cells: prostate cytosol (209,000 g supernatant) of castrated male Sprague Dawley rats
T1 sequence (P15207 1-902): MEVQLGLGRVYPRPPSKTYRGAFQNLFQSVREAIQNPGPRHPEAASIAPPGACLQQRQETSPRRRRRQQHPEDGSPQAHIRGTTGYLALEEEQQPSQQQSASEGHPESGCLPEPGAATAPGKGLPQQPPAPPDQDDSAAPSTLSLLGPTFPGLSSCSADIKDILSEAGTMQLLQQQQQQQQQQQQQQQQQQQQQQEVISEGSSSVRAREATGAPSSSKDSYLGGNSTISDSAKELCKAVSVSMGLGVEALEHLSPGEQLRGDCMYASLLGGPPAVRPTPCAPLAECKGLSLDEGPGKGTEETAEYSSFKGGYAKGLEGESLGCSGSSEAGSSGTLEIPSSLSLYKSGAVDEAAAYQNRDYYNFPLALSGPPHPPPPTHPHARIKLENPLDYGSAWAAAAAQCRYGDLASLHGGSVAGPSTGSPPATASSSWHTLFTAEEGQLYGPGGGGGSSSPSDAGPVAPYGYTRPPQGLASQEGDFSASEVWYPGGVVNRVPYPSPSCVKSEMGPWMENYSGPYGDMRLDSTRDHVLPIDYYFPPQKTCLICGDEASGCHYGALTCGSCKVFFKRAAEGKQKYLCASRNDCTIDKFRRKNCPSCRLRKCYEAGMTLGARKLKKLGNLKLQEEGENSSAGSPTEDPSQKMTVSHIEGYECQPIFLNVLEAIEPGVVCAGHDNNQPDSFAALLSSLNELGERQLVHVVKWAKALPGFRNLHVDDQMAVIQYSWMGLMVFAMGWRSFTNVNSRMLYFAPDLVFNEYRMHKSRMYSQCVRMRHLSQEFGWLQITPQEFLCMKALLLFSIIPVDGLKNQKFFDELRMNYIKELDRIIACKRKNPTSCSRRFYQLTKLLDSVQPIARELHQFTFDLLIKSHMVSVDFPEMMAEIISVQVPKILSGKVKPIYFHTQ
Protocol: 1) Study of the affinity of the products of the invention for the androgen receptor
Male Sprague Dawley EOPS rats weighing 180-200 g, castrated 24 hours previously, are sacrificed, the prostates are removed, weighed and homogenized at 0° C. using a Potter glass, in a buffered solution (10 mM Tris, 0.25M saccharose, 0.1 mM PMSF (phenylmethanesulphonylfluoride), 20 mM sodium molybdate, HCl pH 7.4) to which is added extemporaneously 2 mM of DTT (DL dithiothreitol), at the rate of 1 g of tissue per 8 ml of buffer.
The homogenate is then ultracentrifuged at 0° C., for 30 minutes at 209,000 g. […] Calculation of the relative bond affinity (RBA).
The following 2 curves are drawn: the percentage of the bound tritiated hormone B/T as a function of the logarithm of the concentration of the unlabelled reference hormone and B/T as a function of the logarithm of the concentration of the unlabelled product tested. The straight line of the equation I50 =(B/Tmax+B/Tmin)/2 is determined. B/Tmax=% of the bound tritiated hormone for an incubation of this tritiated hormone at the concentration (T). B/Tmin=% of the bound tritiated hormone for an incubation of this tritiated hormone at the concentration (T) in the presence of a large excess of unlabelled hormone (2500.10^-9 M).
The intersections of the straight line I50 and the curves enable the concentrations of the unlabelled reference hormone (CH) and of the unlabelled tested product (CX) which inhibit by 50% the binding of the tritiated hormone on the receptor to be evaluated.

[1] = tested on: renal ornithine decarboxylase (ODC); test: Determination of the androgen or anti-androgen activity using dosage of ornithine decarboxylase (ODC) in castrated mice receiving testosterone propionate; format: in vivo, male SWISS mice; settings: percutaneous route, 1.5 mg/kg in 10 μl; testosterone propionate 3 mg/kg sub-cutaneous; kidneys 20 hours after treatment
Protocol: 2) Determination of the androgen or anti-androgen activity of the products of the invention using dosage of ornithine decarboxylase (ODC).
20 hours after the treatments, the animals are sacrificed, the kidneys are removed, then homogenized at 0° C., using a teflon glass grinder in 10 volumes of Tris-HCl 50 mM (pH 7.4) buffer containing 250 μM of pyridoxal phosphate, 0.1 mM EDTA, and 5 mM of dithiothreitol. The homogenate is then centrifuged at 209,000 g for 30 minutes.
At 37° C., renal ornithine decarboxylase converts an isotopic mixture of unlabelled ornithine and tritiated ornithine into unlabelled putrescine and tritiated putrescine.
The putrescine is then collected on selective ion-exchange papers. After drying, the excess unconverted tritiated and unlabelled ornithine is eliminated by washing 3 times with 0.1M of ammonium hydroxide. The papers are dried, then the radioactivity is counted after addition of scintillating Aqualite.
The results are expressed as fmoles (10^-15 M) of tritiated putrescine formed/hour/mg of proteins.
Test: the products are administered by percutaneous route at 1.5 mg/kg in a volume of 10 μl.

`CN1C(=O)N(c2ccc(C#N)c(C(F)(F)F)c2)C(=O)C1(C)CF` (centres unmarked) [Example 6] was tested, and the “relative bond affinity (RBA)” value (androgen receptor) was 16 and the “% of inhibition of the ODC of the controls receiving only testosterone propionate” value [1] was 84%.
For `N#Cc1ccc(N2C(=O)NC(CO)(CO)C2=O)cc1C(F)(F)F` [Example 26, 4-(4,4-bis(hydroxymethyl)-2,5-dioxo-1-imidazolidinyl)-2-(trifluoromethyl)-benzonitrile], the “relative bond affinity (RBA)” value (androgen receptor) was 4.
`CC1(CO)C(=O)N(c2ccc(C#N)c(C(F)(F)F)c2)C(=O)N1CCF` (centres unmarked) [Example 3, 4-(2,5-dioxo 3-(2-fluoroethyl) 4-(hydroxymethyl) 4-methyl 1-imidazolidinyl)2-(trifluoromethyl) benzonitrile] was tested, and the “relative bond affinity (RBA)” value (androgen receptor) was 6 and the “% of inhibition of the ODC of the controls receiving only testosterone propionate” value [1] was 47%.
